Data from publication PMC8667898, “Topo II inhibition and DNA intercalation by new phthalazine-based derivatives as potent anticancer agents: design, synthesis, anti-proliferative, docking, and in vivo studies” (Journal of Enzyme Inhibition and Medicinal Chemistry, 2021).
“And” between values parts separate entries of the source, which are not always exact repeats. Equal entries are not always repeated.

Experiments:
[1] = tested on: HCT-116 cells (colorectal carcinoma); experiment: MTT anti-proliferative assay, HCT-116; assay type: cell-based, human
Procedure: Anti-proliferative activities of the target compounds were assessed via the standard MTT method[38–40] against three cancer cell lines, namely, hepatocellular carcinoma (HepG-2), colorectal carcinoma (HCT-116), and human breast adenocarcinoma (MCF-7). Doxorubicin was used in this test as a positive control.
(§1) Anti-proliferative activity of the synthesised compounds was estimated using the MTT assay protocol[8]^,[38–40] as shown in Supplementary data.
(§2) 4.2.1. In vitro anti-proliferative activity against MCF-7, HepG-2 and HCT-116 The cells were cultured in RPMI-1640 medium supplemented with 10% fetal bovine serum (FBS), penicillin (100 unit /mL) and streptomycin sulphate (100µg/mL) at 37 °C in a 5% CO2 incubator.
Then, cells were dropped in 96-well plates at a density of 3-8 × 10^3 cells/well and incubated for two days in a 5% CO2 incubator at 37 °C. Then, the cells were treated with the synthesized compounds and the cell cultures were continued incubated for 24 h. However, Different concentrations of the compound under test (0.0, 5.0, 12.5, 25.0 and 50 mg/ml) were added to the cell monolayer. Then, (3-[4,5-dimethylthiazol-2-yl]- 2,5-diphenyltetrazolium bromide) MTT solution (20 µl, 5mg/mL) was added to each well and incubated for additional 4 h. The formed purple crystals of MTT-formazan were dissolved in 100 µl DMSO each well; the absorbance of each well was measured at 570 nm using a plate reader (EXL 800, USA). All of the compounds were tested three times. The relative cell viability in percentage was calculated. The results for IC50 values of the active compounds are […]
(§3) The data represented the mean of three independent experiments in triplicate and were expressed as means ± SD. […]
of the cells could survive. […]

[2] = tested on: HepG-2 cells (hepatocellular carcinoma); experiment: MTT anti-proliferative assay, HepG-2; assay type: cell-based, human
Procedure: Anti-proliferative activities of the target compounds were assessed via the standard MTT method[38–40] against three cancer cell lines, namely, hepatocellular carcinoma (HepG-2), colorectal carcinoma (HCT-116), and human breast adenocarcinoma (MCF-7).
as §1, §2
Then, cells were dropped in 96-well plates at a density of 3-8 × 10^3 cells/well and incubated for two days in a 5% CO2 incubator at 37 °C. Then, the cells were treated with the synthesized compounds and the cell cultures were continued incubated for 24 h. However, Different concentrations of the compound under test (0.0, 5.0, 12.5, 25.0 and 50 mg/ml) were added to the cell monolayer. Then, (3-[4,5-dimethylthiazol-2-yl]- 2,5-diphenyltetrazolium bromide) MTT solution (20 µl, 5mg/mL) was added to each well and incubated for additional 4 h. The formed purple crystals of MTT-formazan were dissolved in 100 µl DMSO each well; the absorbance of each well was measured at 570 nm using a plate reader (EXL 800, USA). All of the compounds were tested three times. The relative cell viability in percentage was calculated.
as §3

[3] = Histopathological examination of liver tissues of SEC-bearing mice; assay type: in vivo, Swiss albino mice; details: H&E stain, ×200
Procedure: (§4) The experimental animals were randomly divided into four groups. Group 1 served as the normal saline control (5 ml/kg B.Wt., I.P.). Group 2 served as the SEC control (1 × 10^6 cells/mouse). Group 3 served as the compound-treated group (5 mg/kg B.Wt., I.P.). […] Bodyweight and survival were recorded daily until the 24th day in both treated and control groups. At the end of the experiment, the blood of each group was collected under light anaesthesia to the estimate of hematological and biochemical assays. The anaesthetised animals were then sacrificed for evaluation of the antitumor activity and histopathological examination.
Specimens of liver-sacrificed mice were fixed in 10% saline formalin. The fixed liver specimens were dehydrated in ascending series of ethyl alcohol and embedded in paraffin. Sections at […] thicknesses were stained with haematoxylin and eosin and examined under the light microscope.

[4] = Hematological and biochemical blood assays in SEC-bearing mice; assay type: in vivo, Swiss albino mice; details: 5 mg/kg BW, Mean ± SEM (n = 7), 5 mg/kg
Procedure: At the end of the experiment, animals from different groups were sacrificed, and blood samples were collected for hematological parameters, including Hb, RBC’s, and WBC’s levels, and serum for determination of liver enzymes ALT, AST levels, and proteins.
as §4
At the end of the experiment, animals from different groups were sacrificed, and blood samples were collected for hematological parameters including, Hb, RBC’s, and WBC’s levels, and serum for determination of liver enzymes ALT, AST levels, and proteins. Complete blood count (CBC) was investigated using the Abbott CELL-DYN®1800 automated haematology analyser (USA) using ready-made kits (Abbott Laboratories, Abbott Park, IL, USA). Activities of aspartate aminotransferase (AST) and alanine aminotransferase (ALT) were evaluated using commercial kits (ELITech clinical systems, France). Serum albumin level was determined by kit purchased from STANBIO Company (USA). Protein content was determined by colorimetric method using ready-made kits produced by Instrumentation Laboratory SpA, Inova diagnostics, Milano, Italy.

[5] = target: T1, human Topo II (Homo sapiens, UniProt P11388); experiment: Topoisomerase II inhibitory activity (TopoGEN drug screening kit); assay type: biochemical; details: three independent experiments
T1 construct: purchased TopoGEN, Inc., Columbus
Procedure: The activity of topoisomerase II was determined according to the reported procedure described by Patra et al.[42]. […]
4.2.3. Measurement of topoisomerase II activity
Compounds (8a, 8b, 9a, 9c, 9d, 12a, and 12b) were further evaluated to assess their Topo II inhibitory activities. In this test, Topo II drug screening kit (TopoGEN, Inc., Columbus) was utilized to determine the Topo II activity. […] A typical enzyme […]
reaction contained a mixture of human Topo II (2 µL), substrate super coiled pHot1 DNA (0.25 µg), 50 µg/mL test compound (2 µL), and assay buffer (4 µL). The reaction started upon incubation of the mixture in 37 °C for 30 min. The reaction was terminated by addition of 10% sodium dodecylsulphate (2 µL) and proteinase K (50 µg/mL) at 37 °C for 15 min. followed by incubation for 15 min at 37 °C.
Then, the DNA was run on 1% agarose gel in BioRad gel electrophoresis system for 1–2 h followed by staining with GelRedTM stain for 2 h and destained for 15 min with TAE buffer. The gel was imaged Via BioRad’s Gel DocTMEZ system. Both supercoiled and linear strands DNA were incorporated in the gel as markers for DNA-Topo II intercalators. The results of IC50 values were calculated using the GraphPad Prism version 5.0. Each reaction was performed in duplicate, and at least three independent determinations of each IC50 were made.

[6] = ratio of IC50 values vs doxorubicin

T1 sequence (P11388 whole entry): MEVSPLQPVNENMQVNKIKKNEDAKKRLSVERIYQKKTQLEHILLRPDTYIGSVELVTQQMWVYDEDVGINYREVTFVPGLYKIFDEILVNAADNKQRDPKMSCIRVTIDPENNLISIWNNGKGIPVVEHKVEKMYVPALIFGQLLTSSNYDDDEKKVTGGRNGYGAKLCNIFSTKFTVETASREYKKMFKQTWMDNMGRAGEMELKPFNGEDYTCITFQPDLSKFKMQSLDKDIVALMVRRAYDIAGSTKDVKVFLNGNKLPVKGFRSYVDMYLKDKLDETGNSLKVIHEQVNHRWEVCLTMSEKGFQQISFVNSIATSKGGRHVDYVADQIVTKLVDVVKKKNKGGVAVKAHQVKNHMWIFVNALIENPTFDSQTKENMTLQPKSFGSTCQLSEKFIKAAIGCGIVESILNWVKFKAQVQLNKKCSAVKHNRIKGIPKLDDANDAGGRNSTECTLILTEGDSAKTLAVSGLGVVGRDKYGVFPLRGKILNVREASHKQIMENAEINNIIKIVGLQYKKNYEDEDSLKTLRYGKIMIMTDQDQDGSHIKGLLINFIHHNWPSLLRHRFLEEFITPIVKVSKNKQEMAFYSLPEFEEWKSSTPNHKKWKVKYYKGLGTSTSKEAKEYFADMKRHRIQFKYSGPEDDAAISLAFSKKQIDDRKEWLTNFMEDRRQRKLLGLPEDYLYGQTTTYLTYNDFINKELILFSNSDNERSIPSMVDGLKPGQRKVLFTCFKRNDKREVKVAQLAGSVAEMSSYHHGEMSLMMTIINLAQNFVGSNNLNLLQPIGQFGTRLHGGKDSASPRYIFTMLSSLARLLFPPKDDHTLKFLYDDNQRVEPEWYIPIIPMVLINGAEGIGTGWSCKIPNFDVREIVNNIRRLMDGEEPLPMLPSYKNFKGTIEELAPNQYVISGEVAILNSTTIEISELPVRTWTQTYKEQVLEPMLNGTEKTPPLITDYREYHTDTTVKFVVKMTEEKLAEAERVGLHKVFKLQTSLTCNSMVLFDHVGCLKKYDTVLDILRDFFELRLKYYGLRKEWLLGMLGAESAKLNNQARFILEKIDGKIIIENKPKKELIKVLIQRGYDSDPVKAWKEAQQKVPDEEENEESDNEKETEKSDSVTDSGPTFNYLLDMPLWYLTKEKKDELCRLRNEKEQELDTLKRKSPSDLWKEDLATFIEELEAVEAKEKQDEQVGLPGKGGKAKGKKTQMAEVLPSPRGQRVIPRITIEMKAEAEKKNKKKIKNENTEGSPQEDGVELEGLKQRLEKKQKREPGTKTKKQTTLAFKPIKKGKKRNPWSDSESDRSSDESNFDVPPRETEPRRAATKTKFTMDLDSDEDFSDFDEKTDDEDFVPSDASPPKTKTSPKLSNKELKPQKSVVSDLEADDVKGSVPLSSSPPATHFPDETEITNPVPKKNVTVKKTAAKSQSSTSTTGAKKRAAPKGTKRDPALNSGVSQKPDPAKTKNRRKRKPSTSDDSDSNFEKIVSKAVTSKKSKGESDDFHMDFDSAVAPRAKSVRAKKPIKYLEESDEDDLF

SMILES: CCCc1nnc2c3ccccc3c(NN=Cc3ccc([N+](=O)[O-])cc3)nn12 [Compound 9d, 6-[2–(4-Nitrobenzylidene)hydrazineyl]-3-propyl-[1,2, 4]triazolo[3,4-a]phthalazine]
- IC50 ([1]; Homo sapiens, HCT-116, MTT, mean ± SD of three separate experiments, read-out: In vitro Cytotoxicity IC50 HCT-116): 4.74 ± 0.15 µM
- times more active than doxorubicin, HCT-116 [1, 6]: 2.03 times
- IC50 ([2]; Homo sapiens, HepG2, MTT, mean ± SD of three separate experiments, read-out: In vitro Cytotoxicity IC50 HepG-2): 5.08 ± 0.17 µM
- times more active than doxorubicin, HepG2 [2, 6]: 1.63 times
- Histopathological finding in liver tissue [3]: hepatic cells are near normal and show tissue improvement as compared with a little hydropic degeneration
- ALT [4]: 42.9 U/L
- AST [4]: 55.6 U/L
- Albumin [4]: 6.25 g/dL
- Hb [4]: 8.2 g/dL
- RBCs count [4]: 5.37 ×10^6/µL and 5.37 ± 0.37 ×10^6/µL
- Total Protein [4]: 8.04 g/dL
- WBCs count [4]: 3720 µL⁻¹
- IC50 [5]: 7.02 ± 0.54 µM
